{"source": "patent US4777049A", "about": "“Constant release system with pulsed release” (priority 1987, dated 1988)", "key": {"gonadotropin secretion": {"system": "gonadotropin secretion", "conditions": "Drugs, Vol. 23, 207-226, 1982, cited from earlier work"}, "[1]": {"conditions": "cited from earlier work"}}, "note": "Where two headings read alike, the source gives them in different places.", "data": [{"compound": "C[C@]12CC[C@@H]3c4ccc(O)cc4CC[C@H]3[C@@H]1CC[C@@H]2O", "note": "[estradiol]", "values": [{"measurement": "effect on gonadotropin secretion", "setting": "gonadotropin secretion; high pulsed doses", "value": "stimulates the ovulating surge"}, {"measurement": "effect on gonadotropin secretion", "setting": "gonadotropin secretion; low pulsed dose", "value": "inhibits"}]}, {"compound": "C[C@H]1C[C@@H]2[C@H]([C@@H](O)C[C@@]3(C)[C@H]2CC[C@]3(O)C(=O)CO)[C@@]2(C)C=CC(=O)C=C12", "note": "[methylprednisolone]", "values": [{"measurement": "medical effect of pulsed treatment", "setting": "[1]; collagenic and progressing glomerulonephritis", "value": "beneficial medical effect"}]}, {"compound": "CC[C@H](C)[C@@H]1NC(=O)[C@H](Cc2ccc(O)cc2)NC(=O)[C@@H](N)CSSC[C@@H](C(=O)N2CCC[C@H]2C(=O)N[C@@H](CC(C)C)C(=O)NCC(N)=O)NC(=O)[C@H](CC(N)=O)NC(=O)[C@H](CCC(N)=O)NC1=O", "note": "[oxytocin]", "values": [{"measurement": "medical effect of pulsed treatment", "setting": "[1]; induction of labor", "value": "beneficial medical effect"}]}, {"compound": "CO[C@H]1/C=C/O[C@@]2(C)Oc3c(C)c(O)c4c(O)c(c(/C=N/N5CCN(C)CC5)c(O)c4c3C2=O)NC(=O)/C(C)=C\\C=C\\[C@H](C)[C@H](O)[C@@H](C)[C@@H](O)[C@@H](C)[C@H](OC(C)=O)[C@@H]1C", "note": "[rifampicin]", "values": [{"measurement": "medical effect of pulsed treatment", "setting": "[1]; leprosy", "value": "beneficial medical effect"}]}, {"compound": "CC(C)(C)NCC(O)c1ccc(O)c(CO)c1", "note": "(centres unmarked) [salbutamol]", "values": [{"measurement": "solubility", "setting": "physchem; distilled water, water", "value": 275, "unit": "mg/mL"}, {"measurement": "solubility", "setting": "physchem; saturated sodium chloride solution", "value": 16, "unit": "mg/mL"}]}, {"compound": "insulin", "values": [{"measurement": "medical effect of pulsed treatment", "setting": "[1]; control of hyperglycemia", "value": "beneficial medical effect"}]}]}
